Test results published in PubChem BioAssay AID256 (DTP/NCI, 2004).
Where “and” joins values, the source holds several entries; their conditions need not be identical. Equal entries are not always repeated. Inconclusive results and toxic doses are left out. The calls were made as follows: active = survival T/C of 150% or more; inactive = T/C below 125% in these data.

Tested on: CD2F1 mice, L1210 leukemia ip, survival T/C
Test: NCI In Vivo Anticancer Drug Screen. Data for tumor model L1210 Leukemia (intraperitoneal) in CD2F1 (CDF1) mice
Conditions: higher = longer survival
Procedure, shortened: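 Ratio T/C, where T is the treated-group value and C the vehicle-dosed control value, from mice implanted with a transplantable tumor.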

[1] = endpoint: mean survival time, dose: 100.0 mg/kg/injection, schedule: Q04DX003 (ip), vehicle: saline with Tween-80

Measured: T/C

CCOC1NC(=O)Oc2ccccc21 (configuration not stated)
inactive: endpoint: median survival time, dose: 50.0 mg/kg/injection, schedule: Q01DX005 (ip), vehicle: Klucel (hydroxypropylcellulose) (HPC) 100 % of control | endpoint: median survival time, dose: 100.0 mg/kg/injection, schedule: Q01DX005 (ip), vehicle: Klucel (hydroxypropylcellulose) (HPC) 95 % of control | endpoint: median survival time, dose: 200.0 mg/kg/injection, schedule: Q01DX005 (ip), vehicle: Klucel (hydroxypropylcellulose) (HPC) 108 % of control

CC(C)(C)CC(C)(C)c1ccc(OCCOc2ccc(CC(=S)N3CCOCC3)cc2)cc1
inactive: endpoint: mean survival time, dose: 100.0 mg/kg/injection, schedule: Q01DX009 (ip), vehicle: Klucel (hydroxypropylcellulose) (HPC) 96 % of control | [1] 93 % of control | endpoint: mean survival time, dose: 200.0 mg/kg/injection, schedule: Q01DX009 (ip), vehicle: Klucel (hydroxypropylcellulose) (HPC) 95 % of control | endpoint: mean survival time, dose: 200.0 mg/kg/injection, schedule: Q04DX003 (ip), vehicle: saline with Tween-80 95 % of control | endpoint: mean survival time, dose: 400.0 mg/kg/injection, schedule: Q01DX009 (ip), vehicle: Klucel (hydroxypropylcellulose) (HPC) 98 % of control | endpoint: mean survival time, dose: 400.0 mg/kg/injection, schedule: Q04DX003 (ip), vehicle: saline with Tween-80 87 % of control

NC1CCCCC1N.NC1CCCCC1N.[Cl-].[Ni] (configuration not stated)
inactive: endpoint: mean survival time, dose: 50.0 mg/kg/injection, schedule: Q04DX002 (ip), vehicle: saline with Tween-80 110 % of control

O=C1/C(=C/c2ccc(Cl)c(Cl)c2)CCC/C1=C\c1ccc(Cl)c(Cl)c1
inactive: endpoint: mean survival time, dose: 100.0 mg/kg/injection, schedule: Q04DX003 (ip), vehicle: Klucel (hydroxypropylcellulose) (HPC) 98 % of control | endpoint: mean survival time, dose: 200.0 mg/kg/injection, schedule: Q04DX003 (ip), vehicle: Klucel (hydroxypropylcellulose) (HPC) 100 % of control | endpoint: mean survival time, dose: 400.0 mg/kg/injection, schedule: Q04DX003 (ip), vehicle: Klucel (hydroxypropylcellulose) (HPC) 98 % of control

N#CC(C#N)=C/C=C/c1cccc([N+](=O)[O-])c1
inactive: endpoint: mean survival time, dose: 3.12 mg/kg/injection, schedule: Q01DX009 (ip), vehicle: Klucel (hydroxypropylcellulose) (HPC) 101 % of control | endpoint: mean survival time, dose: 6.25 mg/kg/injection, schedule: Q01DX009 (ip), vehicle: Klucel (hydroxypropylcellulose) (HPC) 109 % of control | endpoint: mean survival time, dose: 12.5 mg/kg/injection, schedule: Q01DX009 (ip), vehicle: Klucel (hydroxypropylcellulose) (HPC) 104 % of control

O=c1c(-c2ccccc2)c1-c1ccccc1
inactive: [1] 93 % of control

O=C(CC(O)(C(F)(F)F)C(F)(F)F)c1ccc(F)cc1
inactive: endpoint: mean survival time, dose: 100.0 mg/kg/injection, schedule: Q01DX009 (ip), vehicle: other 98 % of control | endpoint: mean survival time, dose: 200.0 mg/kg/injection, schedule: Q01DX009 (ip), vehicle: other 98 % of control | endpoint: mean survival time, dose: 400.0 mg/kg/injection, schedule: Q01DX009 (ip), vehicle: other 98 % of control

Nc1nc2c(ncn2-c2ccccc2F)c(=O)[nH]1
inactive: endpoint: mean survival time, dose: 25.0 mg/kg/injection, schedule: Q01DX001 (ip), vehicle: saline with Tween-80 102 % of control | endpoint: mean survival time, dose: 50.0 mg/kg/injection, schedule: Q01DX001 (ip), vehicle: saline with Tween-80 106 % of control | endpoint: mean survival time, dose: 100.0 mg/kg/injection, schedule: Q01DX001 (ip), vehicle: saline with Tween-80 94 % of control and 98 % of control

COc1cc2c(cc1O)C(C)NCC2 (configuration not stated)
inactive: endpoint: mean survival time, dose: 75.0 mg/kg/injection, schedule: Q01DX001 (ip), vehicle: saline 109 % of control | endpoint: mean survival time, dose: 150.0 mg/kg/injection, schedule: Q01DX001 (ip), vehicle: saline 101 % of control

CCC1(O)C(=O)OCc2c1cc1n(c2=O)Cc2cc3ccc(/C=N/N=C(N)N)cc3nc2-1 (configuration not stated)
inactive: endpoint: median survival time, dose: 10.0 mg/kg/injection, schedule: Q04DX002 (ip), vehicle: saline with Tween-80 106 % of control | endpoint: median survival time, dose: 20.0 mg/kg/injection, schedule: Q04DX002 (ip), vehicle: saline with Tween-80 113 % of control | endpoint: median survival time, dose: 40.0 mg/kg/injection, schedule: Q04DX002 (ip), vehicle: saline with Tween-80 102 % of control | endpoint: median survival time, dose: 80.0 mg/kg/injection, schedule: Q04DX002 (ip), vehicle: saline with Tween-80 102 % of control

c1cc2nc(c1)CSCCCCCCCSC2
inactive: endpoint: mean survival time, dose: 100.0 mg/kg/injection, schedule: Q01DX009 (ip), vehicle: saline with Tween-80 98 % of control | endpoint: mean survival time, dose: 200.0 mg/kg/injection, schedule: Q01DX009 (ip), vehicle: saline with Tween-80 90 % of control | endpoint: mean survival time, dose: 400.0 mg/kg/injection, schedule: Q01DX009 (ip), vehicle: saline with Tween-80 93 % of control

CC1=C(/C=C/C(C)=C/C=C/C(C)=C/C(=O)Nc2ccc(O)cc2)C(C)(C)CCC1
inactive: endpoint: median survival time, dose: 12.5 mg/kg/injection, schedule: Q01DX005 (ip), vehicle: saline with Tween-80 98 % of control | endpoint: median survival time, dose: 25.0 mg/kg/injection, schedule: Q01DX005 (ip), vehicle: saline with Tween-80 101 % of control | endpoint: median survival time, dose: 50.0 mg/kg/injection, schedule: Q01DX005 (ip), vehicle: saline with Tween-80 98 % of control | endpoint: median survival time, dose: 100.0 mg/kg/injection, schedule: Q01DX005 (ip), vehicle: saline with Tween-80 92 % of control | endpoint: median survival time, dose: 200.0 mg/kg/injection, schedule: Q01DX005 (ip), vehicle: saline with Tween-80 96 % of control
